Series [1] in a line: ABTS radical scavenging assay. It is filed as biochemical. The protocol:
(§1) Water and ethanol extracts from Rubus caesius leaves and stems were freshly prepared by dissolving the dry extract in water. The samples were tested at concentrations ranging from 1 to 1000 µg/mL. Ascorbic acid was used as the reference standard in both assays. All measurements were performed using a 96-well microplate reader (Epoch, BioTek System, Winooski, VT, USA). IC50 values for each extract were calculated using the GraphPad Prism 9 software (version 9.0.0, GraphPad Software, San Diego, CA, USA). Each test was performed in triplicate and repeated three times (n = 9).
The antioxidant activity of the Rubus caesius extracts was determined using ABTS radical scavenging method as described by Thring et al. ([2009]), with minor modifications according to Hering et al. ([2025]). The reaction mixture containing extracts or standard were incubated in the dark for 20 min at 30 °C. After incubation, absorbance was measured at 750 nm. The negative control sample consisted of the reaction mixture and water instead of extract or standard.

The nature of series [2]: Molybdenum reduction (phosphomolybdenum) assay. Type of series: biochemical. The protocol:
as §1
The total reducing power of water and ethanol extracts from Rubus caesius was estimated according to the phosphomolybdenum method described by Prieto et al. ([1999]), with modifications by Hering et al. ([2025]). The samples (extract or standard) were mixed with the reagent solution and incubated at 90 °C for 90 min. After cooling, 250 µL of each reaction mixture was transferred to a 96-well microplate reader (Epoch, BioTek System, Winooski, VT, USA), and absorbance was measured at 700 nm. The negative control consisted of the reaction mixture and water.

Series [3] is described as follows: Skin permeation from hydrogels in Franz diffusion cells. As to conditions: porcine skin. It is filed as in vitro ADME. The protocol: Permeation experiments were conducted using Franz diffusion cells (Phoenix DB-6, ABL&E-JASCO, Wien, Austria), with a donor chamber area of 1 cm^2 and 10 mL acceptor chamber filled with phosphate-buffered saline (PBS, pH 7.4). The system was maintained at 37.0 ± 0.5 °C, and the acceptor solutions were continuously stirred.
Skin samples were wrapped in aluminum foil, frozen at −20 °C for no longer than three months. […] Skin impedance was measured by immersing the probe tips in the donor and acceptor chambers filled with PBS.
One gram of each hydrogel was applied to the donor chamber. All chambers were sealed with plastic stoppers to minimize evaporation. […] Phenolic acid concentrations were determined by HPLC.
J-shaped profiles and the following equations were used: (1) A=JSS(t−LT) where A is the cumulative amount permeated (μg·cm^−2) of tested phenolic acids permeating into the receptor compartment; JSS is the steady-state flux (μg·cm^−2·h^−1); t is the time (h), and LT is the lag time (h).
The steady-state flux was estimated from the slope of the linear portion of the plot of cumulative mass in the acceptor phase over time. The lag time (LT) was determined from the x-intercept of the linear portion of the plot of cumulative mass in the acceptor phase over time and was used to calculate the […] (KP) as follows: (2) KP=JSS/C where C is the concentration in the donor phase.

Series [4] in a line: Skin accumulation after 24 h permeation. It is filed as in vitro ADME. As to conditions: after 24-h penetration; HL-E application; porcine skin. How it is done: Following incubation, samples were homogenized (IKA®T18 digital ULTRA TURRAX, Germany) for 3 min and centrifuged at 3500 rpm for 5 min. The resulting supernatants were analyzed by HPLC spectrophotometry, with methanol used as a blank. Accumulated phenolic acids were expressed as amount (µg) per gram of skin tissue (µg·g skin^−1).

The target in series [5] is Collagenase from Clostridium histolyticum. Briefly: Collagenase inhibition assay (FALGPA substrate). It is filed as biochemical. How it is done: Preparation of the extracts and calculation of IC50 values were carried out as described in the Antioxidant tests section. The effect of Rubus caesius extracts on collagenase and tyrosinase activity was estimated using the spectrophotometric method in a 96-well microplate reader (Epoch, BioTek System, Winooski, VT, USA).
The addition of the substrate started the reaction. Changes in absorbance were monitored every 20 s for a total of 20 min. The blank sample contained buffer, substrate, and the appropriate concentration of extract or standard. The negative control sample contained water instead of extract or standard. All tests were performed in triplicate and repeated three times (n = 9).
The effect of Rubus caesius extracts on collagenase activity was assessed based on the method described by Thring et al. ([2009]), with modifications introduced by Hering et al. ([2023]). FALGPA was used as the substrate, and oleanolic acid served as the positive control. Reaction mixtures containing the extract (0–400 µg/mL) were pre-incubated for 15 min. The reaction was initiated by the addition of 0.8 mM FALGPA, and absorbance was continuously measured at 335 nm. The reaction buffer was composed of tricine (50 mM, pH 7.5) with 400 mM NaCl and 10 mM CaCl2.

Marks after values point to notes of the source that are not given here.

For `O=C1O[C@H]([C@@H](O)CO)C(O)=C1O` [Ascorbic acid, ascorbic acid], in series [1], the “ABTS radical scavenging IC50” value was 14.77 ± 0.5 µg/mL. Also, the “Molybdenum reduction IC50” value in series [2] came to 78.25 ± 1.25 µg/mL.

On to `O=C(O)/C=C/c1ccc(O)c(O)c1` [Caffeic acid, caffeic acid], for which the “Phenolic acids concentration in the acceptor fluid (cumulative mass)” value (from here on “Phenolic acids concentration”) in series [3] (from hydrogel HL-E, 3 h) was 2.58 ± 0.20^a µg/cm^2; in series [3] (from hydrogel HL-E, 5 h) it was 2.84 ± 0.07^a µg/cm^2; in series [3] (from hydrogel HL-E, 8 h), 3.30 ± 0.13^a µg/cm^2; in series [3] (from hydrogel HL-E, 24 h), 7.83 ± 0.83^a µg/cm^2; in series [3] (from hydrogel HS-E, 24 h), “not permeating at all”. For the same molecule, the “D·10^4, diffusion coefficient” value in series [3] (from hydrogel HL-E) amounted to 3.41 ± 0.28 cm^2/h. Also, in series [3] (from hydrogel HL-E), the “JSS, steady-state flux” value was 0.84 ± 0.02 µg/cm^2·h. For the same molecule, the “LT, lag time” value in series [3] (from hydrogel HL-E) was found to be 1.22 ± 0.09 h. Besides, the “Q%24h, percentage of applied dose in acceptor phase after 24 h” value (“Q%24h, percentage of applied dose” for short) in series [3] (from hydrogel HL-E) was found to be 0.68 ± 0.07%.

With `O=C(O)/C=C/c1ccc(O)cc1` [Coumaric acid, coumaric acid], the “Phenolic acids concentration” value is given as 4.97 ± 0.09^a µg/cm^2 in series [3] (from hydrogel HL-E, 3 h); 7.04 ± 0.75^a µg/cm^2 in series [3] (from hydrogel HL-E, 5 h); 8.95 ± 1.00^a µg/cm^2 in series [3] (from hydrogel HL-E, 8 h); 12.45 ± 0.26^a µg/cm^2 in series [3] (from hydrogel HL-E, 24 h); 5.10 ± 0.11^b µg/cm^2 in series [3] (from hydrogel HS-E, 8 h); 5.93 ± 0.08^b µg/cm^2 in series [3] (from hydrogel HS-E, 24 h). Moreover, the “D·10^4, diffusion coefficient” value in series [3] (from hydrogel HL-E) amounted to 9.27 ± 0.73 cm^2/h. The “JSS, steady-state flux” value in series [3] (from hydrogel HL-E) was found to be 1.35 ± 0.17 µg/cm^2·h. In addition, the results for the “Q%24h, percentage of applied dose” value in series [3] (from hydrogel HL-E) and in series [3] (from hydrogel HS-E) were 2.62 ± 0.05% and 5.37 ± 0.07%, respectively.

Regarding `O=C(O)c1cc(O)c(O)c(O)c1` [Gallic acid, gallic acid], the “Phenolic acids concentration” value in series [3] (from hydrogel HL-E, 1 h) was 3.64 ± 0.12^a µg/cm^2; in series [3] (from hydrogel HL-E, 2 h), 4.54 ± 0.47^a µg/cm^2; in series [3] (from hydrogel HL-E, 3 h), 6.18 ± 0.35^a µg/cm^2; in series [3] (from hydrogel HL-E, 5 h), 10.24 ± 0.97^a µg/cm^2; in series [3] (from hydrogel HL-E, 8 h), 16.09 ± 1.19^a µg/cm^2; in series [3] (from hydrogel HL-E, 24 h), 49.62 ± 2.18^a µg/cm^2. Also, the “Phenolic acids concentration” value in series [3] (from hydrogel HL-E, 24 h, listed as gallic acid) was 49.62 ± 2.18 µg/cm^2; in series [3] (from hydrogel HS-E, 5 h) it was 3.95 ± 0.18^b µg/cm^2; in series [3] (from hydrogel HS-E, 8 h), 4.69 ± 0.19^b µg/cm^2; in series [3] (from hydrogel HS-E, 24 h) it was 7.19 ± 0.47^b µg/cm^2. Besides, the “D·10^4, diffusion coefficient” value in series [3] (from hydrogel HL-E) was determined as 25.73 ± 1.64 cm^2/h; in series [3] (from hydrogel HS-E), 2.01 ± 0.09 cm^2/h. The “JSS, steady-state flux” value in series [3] (from hydrogel HL-E) was 2.08 ± 0.08 µg/cm^2·h; in series [3] (from hydrogel HS-E), 0.88 ± 0.04 µg/cm^2·h. Moreover, the “LT, lag time” value in series [3] (from hydrogel HL-E) is on record as 0.16 ± 0.02 h; in series [3] (from hydrogel HS-E), 2.08 ± 0.09 h. The “Q%24h, percentage of applied dose” value came out at 5.78 ± 0.25% in series [3] (from hydrogel HL-E); 5.78% in series [3] (from hydrogel HL-E, listed as gallic acid); 4.78 ± 0.35% in series [3] (from hydrogel HS-E). The “Accumulation of phenolic acid in the skin” value in series [4] is reported as 70.62 ± 4.06 µg/g skin.

On to `O=C(O)c1ccc(O)c(O)c1` [Protocatechuic acid, protocatechuic acid], for which the “Phenolic acids concentration” value is 3.28 ± 0.31^a µg/cm^2 in series [3] (from hydrogel HL-E, 2 h); 5.86 ± 0.28^a µg/cm^2 in series [3] (from hydrogel HL-E, 3 h); 8.59 ± 0.65^a µg/cm^2 in series [3] (from hydrogel HL-E, 5 h); 11.94 ± 1.91^a µg/cm^2 in series [3] (from hydrogel HL-E, 8 h); 37.95 ± 2.96^a µg/cm^2 in series [3] (from hydrogel HL-E, 24 h); 37.95 ± 2.96 µg/cm^2 in series [3] (from hydrogel HL-E, 24 h, listed as protocatechuic acid). The “Phenolic acids concentration” value in series [3] (from hydrogel HS-E, 5 h) is listed as 3.04 ± 0.03^a µg/cm^2; in series [3] (from hydrogel HS-E, 8 h), 3.84 ± 0.18^b µg/cm^2; in series [3] (from hydrogel HS-E, 24 h), 4.57 ± 0.30^b µg/cm^2. The “D·10^4, diffusion coefficient” value amounted to 6.57 ± 0.77 cm^2/h in series [3] (from hydrogel HL-E) and 1.91 ± 0.09 cm^2/h in series [3] (from hydrogel HS-E). The “JSS, steady-state flux” value in series [3] (from hydrogel HL-E) was determined as 2.10 ± 0.17 µg/cm^2·h; in series [3] (from hydrogel HS-E) it was 0.73 ± 0.04 µg/cm^2·h. For the same molecule, the “LT, lag time” value in series [3] (from hydrogel HL-E) came out at 0.63 ± 0.08 h; in series [3] (from hydrogel HS-E), 2.19 ± 0.10 h. The “Q%24h, percentage of applied dose” value in series [3] (from hydrogel HL-E) is on record as 4.49 ± 0.35%; in series [3] (from hydrogel HL-E, listed as protocatechuic acid) it was 4.49%; in series [3] (from hydrogel HS-E), 2.45 ± 0.16%. Also, the “Accumulation of phenolic acid in the skin” value in series [4] is on record as 61.46 ± 12.57 µg/g skin.

`COc1cc(C(=O)O)ccc1O` [Vanillic acid, vanillic acid]: the “Phenolic acids concentration” value in series [3] (from hydrogel HL-E, 3 h) was 0.49 ± 0.25^a µg/cm^2; in series [3] (from hydrogel HL-E, 5 h), 1.76 ± 0.82^a µg/cm^2; in series [3] (from hydrogel HL-E, 8 h), 3.92 ± 1.06^a µg/cm^2; in series [3] (from hydrogel HL-E, 24 h), 15.61 ± 2.42^a µg/cm^2; in series [3] (from hydrogel HS-E, 24 h), 0.95 ± 0.15^b µg/cm^2. The “D·10^4, diffusion coefficient” value in series [3] (from hydrogel HL-E) is 2.68 ± 0.19 cm^2/h. In series [3] (from hydrogel HL-E), the “JSS, steady-state flux” value is on record as 0.54 ± 0.03 µg/cm^2·h. The “LT, lag time” value in series [3] (from hydrogel HL-E) is 1.55 ± 0.13 h. Moreover, the “Q%24h, percentage of applied dose” value is on record as 4.77 ± 0.29% in series [3] (from hydrogel HL-E); 4.77% in series [3] (from hydrogel HL-E, listed as vanillic acid); 3.28 ± 0.52% in series [3] (from hydrogel HS-E).

In the case of `CC1(C)CC[C@]2(C(=O)O)CC[C@]3(C)C(=CC[C@@H]4[C@@]5(C)CC[C@H](O)C(C)(C)[C@@H]5CC[C@]43C)[C@@H]2C1` [oleanolic acid], in series [5], the “IC50 of collagenase inhibition” value came to 31.72 ± 0.65 µg/mL.

(Values after paper PMC12584836, “Rubus caesius leaves and stems in antiaging skin care products: antityrosinase, anticollagenase, antimicrobial activity, and transdermal distribution of main phenolic acids” (Pharmaceutical Biology, 2025).)
